In PMC6941124 (International Journal of Molecular Sciences, 2019):

Key:
CK1δ R115H = biological target: T1, CK1δ R115H (Homo sapiens, UniProt P48730, R115H); experiment: in vitro kinase assay, CK1δ mutant R115H; assay type: biochemical; settings: inhibitor at IC50 concentration previously determined for CK1δ WT; DMSO control = 100%; adjusted to WT = 50%; mean ± SD
T1 sequence (P48730 1-415 R115H): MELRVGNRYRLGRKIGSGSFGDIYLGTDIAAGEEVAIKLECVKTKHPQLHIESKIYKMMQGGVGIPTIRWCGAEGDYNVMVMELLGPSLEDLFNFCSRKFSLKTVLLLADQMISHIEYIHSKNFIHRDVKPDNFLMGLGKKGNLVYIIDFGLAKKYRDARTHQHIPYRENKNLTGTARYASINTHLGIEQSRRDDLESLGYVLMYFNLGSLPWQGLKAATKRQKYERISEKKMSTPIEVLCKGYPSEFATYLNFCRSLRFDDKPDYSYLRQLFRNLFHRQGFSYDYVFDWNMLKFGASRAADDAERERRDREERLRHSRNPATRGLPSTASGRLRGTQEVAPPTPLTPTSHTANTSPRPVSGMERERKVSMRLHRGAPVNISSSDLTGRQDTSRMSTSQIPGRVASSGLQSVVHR
Method: (§1) Overexpression and purification of GST-CK1δ fusion proteins, either wild type or mutant, were performed as described previously.
(§2) Each kinase assay reaction was performed in kinase buffer (25 mM Tris-HCl (pH 7.5), 10 μM ATP, 10 mM MgCl2, 100 μM EDTA) in presence of purified GST-CK1δ kinase as source of enzyme (either wild type or mutant), an assay-specific substrate (α-casein, GST-p53^1−64, or GST-β-catenin^1−181), and radiolabeled ATP (2 μCi [γ-^32P]-ATP). For performing Michaelis–Menten analysis increasing substrate concentrations were used (α-casein: 0.39−25 μM; GST-p53^1−64: 0.09−1.87 μM; GST-β-catenin^1−181: 0.07−1.32 μM). For biological evaluation of small molecule inhibitors (SMIs), each inhibitor compound was either tested at 10 μM concentration for initial screening or by using a dilution series (0.005−10 µM) for determination of IC50 values. DMSO was used as control. Reactions were incubated for 30 min at 30 °C and reactions were stopped using 5x SDS-loading buffer (250 mM Tris-HCl [pH 6.8], 25% (v/v) β-mercaptoethanol (MSH), 50% (v/v) glycerol, 10% (w/v) SDS, 0.5% (w/v) bromphenol blue). Subsequently, samples were separated by SDS-PAGE using 12.5% acrylamide gels, stained with Coomassie, and phosphorylated substrates were visualized on X-ray film. Incorporation of radiolabeled phosphate was quantified by scintillation counting of Coomassie-stained substrate bands. Defined dilutions of the reaction master mix were counted as well in order to convert results obtained as counts per minute (CPM) to units of transferred phosphate in pmol/min. Michaelis–Menten analysis was performed using GraphPad Prism 6 (GraphPad Software, San Diego, CA, USA).

CK1δ Q399* = biological target: T2, CK1δ Q399* (Homo sapiens, UniProt P48730); experiment: in vitro kinase assay, CK1δ mutant Q399*; assay type: biochemical; settings: inhibitor at IC50 concentration previously determined for CK1δ WT; DMSO control = 100%; adjusted to WT = 50%; mean ± SD
T2 sequence (P48730 1-398): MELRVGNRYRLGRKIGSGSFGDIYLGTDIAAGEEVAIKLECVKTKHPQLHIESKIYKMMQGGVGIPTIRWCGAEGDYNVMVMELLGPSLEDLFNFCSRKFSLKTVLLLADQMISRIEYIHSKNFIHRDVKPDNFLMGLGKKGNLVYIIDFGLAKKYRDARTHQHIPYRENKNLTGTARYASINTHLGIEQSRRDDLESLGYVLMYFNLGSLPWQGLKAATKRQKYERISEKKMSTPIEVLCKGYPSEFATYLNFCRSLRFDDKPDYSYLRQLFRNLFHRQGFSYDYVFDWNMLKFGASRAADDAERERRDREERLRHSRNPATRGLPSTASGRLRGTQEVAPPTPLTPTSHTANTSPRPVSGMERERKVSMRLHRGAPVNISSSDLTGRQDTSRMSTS
Method: as §1, §2

Residual activity of CK1δ R115H (CK1δ R115H) [%]	Residual activity of CK1δ Q399* (CK1δ Q399*) [%]	SMILES
36 ± 10	75 ± 30	O=C(Nc1nc2ccc(C(F)(F)F)cc2[nH]1)c1csc(NC(=O)c2ccccc2OC(F)(F)F)n1 [Bischof-5]
71 ± 34	53 ± 27	Cc1ccc2nc(NC(=O)CSc3nc4c(c(=O)n3-c3ccccc3)SCC4)sc2c1 [IWP-2]
46 ± 5	96 ± 79	COc1ccccc1-n1c(SCC(=O)Nc2nc3ccc(C)cc3s2)nc2c(c1=O)SCC2 [IWP-4]
